Molecular target: T1, human active recombinant p38 (p38α) (Homo sapiens, UniProt Q16539)
T1 construct: 6His
Assay: p38 Alpha Enzyme Assay (AlphaScreen, biotinylated-ATF2 substrate)
Assay type: biochemical
Conditions: means of replicate determinations; pre-incubated for 4 hours at 37° C.; SD of assay between 0.2 and 0.3 log units; read-out: p38α inhibition Mean pIC50 (converted)
Method: The ability of the compounds of formula (I) to inhibit p38 kinase may be determined using the following biological assay:
Enzyme assays were performed in polypropylene 96 well plates. The following solutions were added to each well; 10 μL of compound dilutions in assay buffer (20 mM HEPES pH 7.4, containing 20 mM magnesium acetate, 0.005% (w/v) Tween-20, 10 mM DTT) containing 1% (v/v) DMSO or assay buffer containing 1% (v/v) DMSO alone, 70 μL of assay buffer containing 36 nM substrate (biotinylated-ATF2) and 10 μL of an appropriate dilution of human active recombinant p38-6H is tagged. Depending on batch of p38, an appropriate dilution was typically a 5 nM solution to give a final enzyme concentration of 0.5 nM. At this stage, background control wells also received 50 μL of AlphaScreen quench buffer (10 mM HEPES pH 7.4 containing 100 mM EDTA, 0.2% (w/v) bovine serum albumin). The plate was covered, pre-incubated for 4 hours at 37° C. and the enzyme reaction initiated by addition of 10 μL 1 mM ATP. After incubation for a further 45 minutes at 37° C., the reaction was stopped by addition of 50 μL quench reagent and 50 μL of the quenched reaction mixture transferred to an opaque, white 96-well plate. Detection reagent, 25 μL of 10 mM HEPES pH 7.4 containing 100 mM EDTA, 0.2% (w/v) bovine serum albumin, 0.3 nM anti phosphoATF2 antibody and 25 μg/mL of AlphaScreen protein A acceptor and donor beads' (PerkinElmer Inc.), was added to all wells in a darkened room, the plate sealed and left in the dark for at least 5 hours before AlphaScreen readings were taken using a Perkin Elmer EnVision reader. Total, uninhibited activity was determined from assays performed in each assay plate. The mean control in the absence of p38 activity was subtracted from each well. Data were expressed as percent inhibition of total activity using equation 1. Percent Inhibition=100*(1−Test/Control) Eq.1 Where . . . Test=p38 kinase activity in the presence of compound Control=p38 kinase activity in the absence of compound.
pIC50 is defined as the logarithm of the reciprocal of the concentration of compound required for 50% reduction in total p38 kinase activity.
The standard deviation of the p38 enzyme inhibition assay is between 0.2 and 0.3 log units.

T1 sequence (Q16539 whole entry): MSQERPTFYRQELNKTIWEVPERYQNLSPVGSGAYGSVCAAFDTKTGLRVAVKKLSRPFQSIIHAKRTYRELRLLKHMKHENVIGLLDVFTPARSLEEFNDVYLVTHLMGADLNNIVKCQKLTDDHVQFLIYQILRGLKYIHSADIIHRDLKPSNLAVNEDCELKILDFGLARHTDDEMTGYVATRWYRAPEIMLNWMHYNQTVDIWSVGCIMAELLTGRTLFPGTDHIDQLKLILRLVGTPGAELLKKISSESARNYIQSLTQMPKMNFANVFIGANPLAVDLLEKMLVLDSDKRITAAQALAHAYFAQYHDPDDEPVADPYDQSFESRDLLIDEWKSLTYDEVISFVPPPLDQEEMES

Compound | IC50 [nM]
Cc1c(F)cc(C(=O)NC2CC2)cc1-c1ccc2c(=O)n(CC(C)(C)CO)cc(C(C)N3CCNCC3)c2c1 (racemic) [Example 38, N-Cyclopropyl-3-fluoro-5-[2-(3-hydroxy-2,2-dimethylpropyl)-1-oxo-4-(1-piperazin-1-ylethyl)-1,2-dihydroisoquinolin-6-yl]-4-methylbenzamide racemate] | 0.2
Cc1c(F)cc(C(=O)NC2CC2)cc1-c1ccc2c(=O)n(CC(C)(C)CO)cc(C(C)N3CCNCC3)c2c1 (single isomer, unassigned) [Example 39, N-Cyclopropyl-3-fluoro-5-[2-(3-hydroxy-2,2-dimethylpropyl)-1-oxo-4-(1-piperazin-1-ylethyl)-1,2-dihydroisoquinolin-6-yl]-4-methylbenzamide] | 0.631
Cc1c(F)cc(C(=O)NC2CC2)cc1-c1ccc2c(=O)n(CCCO)cc(CN3CCN[C@H](CO)C3)c2c1 [Example 3, N-Cyclopropyl-3-fluoro-5-(4-(((3S)-3-(hydroxymethyl)piperazin-1-yl)methyl)-2-(3-hydroxypropyl)-1-oxo-1,2-dihydroisoquinolin-6-yl)-4-methylbenzamide] | 0.158
Cc1c(F)cc(C(=O)NC2CC2)cc1-c1ccc2c(=O)n(CCCO)cc(CN3CCN[C@@H](C)C3)c2c1 [Example 4, N-Cyclopropyl-3-fluoro-5-(2-(3-hydroxypropyl)-4-(((3S)-3-methylpiperazin-1-yl)methyl)-1-oxo-1,2-dihydroisoquinolin-6-yl)-4-methylbenzamide] | 0.501
Cc1c(F)cc(C(=O)NC2CC2)cc1-c1ccc2c(=O)n(CCO)cc(CN3CCN[C@@H](C)C3)c2c1 [Example 6] | 1
Cc1c(F)cc(C(=O)NC2CC2)cc1-c1ccc2c(=O)n(CCO)cc(CN3CCCN(C)CC3)c2c1 [Example 7, N-Cyclopropyl-3-fluoro-5-(2-(2-hydroxyethyl)-4-((4-methyl-1,4-diazepan-1-yl)methyl)-1-oxo-1,2-dihydroisoquinolin-6-yl)-4-methylbenzamide] | 0.501
Cc1c(F)cc(C(=O)NC2CC2)cc1-c1ccc2c(=O)n(CCCCO)cc(CN3CCCN(C)CC3)c2c1 [Example 8, N-Cyclopropyl-3-fluoro-5-{2-(4-hydroxybutyl)-4-[(4-methyl-1,4-diazepan-1-yl)methyl]-1-oxo-1,2-dihydroisoquinolin-6-yl}-4-methylbenzamide] | 0.251

Further lines, results first:

IC50 [nM] | Compound
0.0794 | Cc1c(F)cc(C(=O)NC2CC2)cc1-c1ccc2c(=O)n(CC(C)(C)CO)cc(C(C)N3CCNCC3)c2c1 (single isomer, unassigned) [Example 40, N-Cyclopropyl-3-fluoro-5-[2-(3-hydroxy-2,2-dimethylpropyl)-1-oxo-4-(1-piperazin-1-ylethyl)-1,2-dihydroisoquinolin-6-yl]-4-methylbenzamide]
0.126 | Cc1c(F)cc(C(=O)NC2CC2)cc1-c1ccc2c(=O)n(CC(C)(C)CO)cc(CN3CCNCC3)c2c1 [Example 1, N-Cyclopropyl-3-fluoro-5-[2-(3-hydroxy-2,2-dimethylpropyl)-1-oxo-4-(piperazin-1-ylmethyl)-1,2-dihydroisoquinolin-6-yl]-4-methylbenzamide]
0.251 | Cc1c(F)cc(C(=O)NC2CC2)cc1-c1ccc2c(=O)n(CC(C)(C)CO)cc(CN3CCCN(C)CC3)c2c1 [Example 2, N-Cyclopropyl-3-fluoro-5-{2-(3-hydroxy-2,2-dimethylpropyl)-4-[(4-methyl-1,4-diazepan-1-yl)methyl]-1-oxo-1,2-dihydroisoquinolin-6-yl}-4-methylbenzamide]
0.2 | Cc1c(F)cc(C(=O)NC2CC2)cc1-c1ccc2c(=O)n(CCO)cc(CN3CCNCC3)c2c1 [Example 5, N-Cyclopropyl-3-fluoro-5-(2-(2-hydroxyethyl)-1-oxo-4-(piperazin-1-ylmethyl)-1,2-dihydroisoquinolin-6-yl)-4-methylbenzamide]

From patent US8012980B2, “Isoquinolinone derivatives” (AstraZeneca AB, priority 2008, dated 2011)
